Source: patent US20230295140A1, “INHIBITORS OF VAP-1” (Acucela Inc., priority 2021, published 2023)

What was measured:
Type in all cases: biochemical
rhVAP-1 = rhVAP-1 (Homo sapiens (Human), UniProt Q16853); assay: VAP-1 fluorometric assay (Amplex Red/HRP, benzylamine substrate); details: class symbols, ranges defined in μM
Procedure: The capability of compounds described herein to inhibit the enzymatic activity of vascular adhesion protein-1 (VAP-1) was determined by fluorometric assay. The assay procedure provided by R&D Systems was modified slightly for use as an inhibitor screening assay. The assay measured the H2O2 generated from the oxidative deamination of benzylamine by rhVAP-1 by converting Amplex® Red to the fluorescent product, resorufin, via horseradish peroxidase (HRP) and H2O2. Reaction buffer was 10 mM NaHCO3, pH 7.4. A standard curve was prepared by serially diluting H2O2 in reaction buffer. A 10 μM solution of resorufin was prepared in reaction buffer and was dispensed to 2 wells. These wells served as positive control for maximum fluorescence. Reaction buffer was added to the individual wells so that the final volume in each well was 100 μL. Amplex Red was diluted to 1 mM in reaction buffer. A 10 U stock of HRP was prepared in reaction buffer. A reaction cocktail was prepared by mixing equal parts 1 mM Amplex Red with 10 U HRP with 3 parts reaction buffers. The reaction cocktail was added to the appropriate wells, so that that final concentration in the well was 0.05 mM Amplex Red and 0.5 U HRP. A 200 μM solution of benzylamine was prepared in reaction buffer. Benzylamine was added to the appropriate wells so that the final concentration was 50 μM. Inhibitors were diluted in DMSO to 20× and distributed to the appropriate wells. LJP-1207 served a positive control. rhVAP-1 was purchased from R&D Systems. The concentration used for each lot was determined so that the activity was equal to the first lot. Two wells were left blank as controls. The plate was incubated for 30 minutes at 37° C., protected from light under foil. The plate was read at 530/35 emission and 590/35 excitation. Data processing was performed using Excel and Prism software.
The capability of compounds described herein to inhibit the enzymatic activity of vascular adhesion protein-1 (VAP-1) was determined by fluorometric assay. The assay procedure provided by R&D Systems was modified slightly for use as an inhibitor screening assay. The assay measured the H2O2 generated from the oxidative deamination of benzylamine by rhVAP-1 by converting Amplex® Red to the fluorescent product, resorufin, via horseradish peroxidase (HRP) and H2O2. Amplex Red, HRP, Benzylamine, inhibitors (with DMSO as vehicle, 0.5% v/v) and rhVAP-1 were added to the wells. Assay was conducted in 10 mM NaHCO3, pH 7.4. A standard curve was prepared by serially diluting H2O2 in reaction buffer. The plate was incubated for 30 minutes at 37° C., protected from light under foil. The plate was read at 530/35 emission and 590/35 excitation. Data processing was performed using Prism software.

rhMAO-A = rhMAO-A (Homo sapiens (Human), UniProt P21397); assay: MAO-Glo assay, MAO-A inhibition
Procedure: (§1) The capability of compounds described herein to inhibit MAO was determined using a modified Promega MAO-Glo™ assay kit. The substrate ((4S)-4,5-dihydro-2-(6-hydroxybenzothiazolyl)-4-thiazolecarboxylic acid) was converted by MAO to produce methyl ester luciferin. The luciferin was then converted by luciferase to produce oxyluciferin and light. The light was measured using a luminescence setting on the plate reader. A standard curve was prepared by serially diluting luciferin in reaction buffer. The standard kit reaction buffer was used—100 mM HEPES (pH 7.5), 5% glycerol. The substrate was dispensed into the wells so that the final concentration for MAO-A inhibition assay would be 10 μM and MAO-B inhibition assay would be […]. Inhibitors were diluted in DMSO to 4× and distributed to the appropriate wells. Clorgyline and Deprenyl served as positive controls. rhMAO-A and rhMAO-B were purchased from Sigma. MAO-A or MAO-B was added to the appropriate wells. The plate was incubated for 1 hour, at room temperature with gentle shaking (90 rpm). The detection agent was added at equal volume (48 μL detection agent to 48 μL reaction). The plate was incubated for 20 minutes, at room temperature with gentle shaking (90 rpm). The plate luminescence was read. Data processing was performed using Prism software.
(§2) The capability of compounds described herein to inhibit MAO was determined using a modified Promega MAO-Glo™ assay. Test compounds, substrate and enzyme were incubated per manufacturer instructions for 1 hour, at room temperature with gentle shaking (90 rpm) before addition of detection agent. The detection agent was added at equal volume (48 μL detection agent to 48 μL reaction). The plate was incubated for 20 minutes, at room temperature with gentle shaking (90 rpm). The plate luminescence was read. Data processing was performed using Prism software.

rhMAO-B = rhMAO-B (Homo sapiens (Human), UniProt P27338); assay: MAO-Glo assay, MAO-B inhibition
Procedure: as §1, §2

[1] = class symbols, ranges defined in μM

Sequence of rhVAP-1 (Q16853 whole entry): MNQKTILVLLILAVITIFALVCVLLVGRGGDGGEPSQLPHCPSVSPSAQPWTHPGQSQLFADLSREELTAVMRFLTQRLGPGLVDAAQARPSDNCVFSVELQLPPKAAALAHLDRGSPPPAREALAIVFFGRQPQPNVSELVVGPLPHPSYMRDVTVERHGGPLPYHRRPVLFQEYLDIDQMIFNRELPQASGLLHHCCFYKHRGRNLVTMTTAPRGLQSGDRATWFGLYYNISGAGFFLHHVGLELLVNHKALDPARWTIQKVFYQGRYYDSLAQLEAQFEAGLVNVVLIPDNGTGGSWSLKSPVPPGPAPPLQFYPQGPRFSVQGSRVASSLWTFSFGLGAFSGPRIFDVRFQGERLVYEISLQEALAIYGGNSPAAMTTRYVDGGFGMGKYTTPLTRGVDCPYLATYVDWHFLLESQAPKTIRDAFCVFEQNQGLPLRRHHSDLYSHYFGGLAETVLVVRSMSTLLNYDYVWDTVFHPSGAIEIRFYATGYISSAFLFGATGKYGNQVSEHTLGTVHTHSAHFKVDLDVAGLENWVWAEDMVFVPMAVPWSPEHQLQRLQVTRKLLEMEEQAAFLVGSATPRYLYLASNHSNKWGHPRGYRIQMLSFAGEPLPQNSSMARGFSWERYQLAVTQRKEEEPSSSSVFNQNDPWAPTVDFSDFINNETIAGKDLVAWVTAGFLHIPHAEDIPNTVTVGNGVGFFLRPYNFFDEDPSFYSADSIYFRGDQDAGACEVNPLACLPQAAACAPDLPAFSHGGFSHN
Sequence of rhMAO-B (P27338 whole entry): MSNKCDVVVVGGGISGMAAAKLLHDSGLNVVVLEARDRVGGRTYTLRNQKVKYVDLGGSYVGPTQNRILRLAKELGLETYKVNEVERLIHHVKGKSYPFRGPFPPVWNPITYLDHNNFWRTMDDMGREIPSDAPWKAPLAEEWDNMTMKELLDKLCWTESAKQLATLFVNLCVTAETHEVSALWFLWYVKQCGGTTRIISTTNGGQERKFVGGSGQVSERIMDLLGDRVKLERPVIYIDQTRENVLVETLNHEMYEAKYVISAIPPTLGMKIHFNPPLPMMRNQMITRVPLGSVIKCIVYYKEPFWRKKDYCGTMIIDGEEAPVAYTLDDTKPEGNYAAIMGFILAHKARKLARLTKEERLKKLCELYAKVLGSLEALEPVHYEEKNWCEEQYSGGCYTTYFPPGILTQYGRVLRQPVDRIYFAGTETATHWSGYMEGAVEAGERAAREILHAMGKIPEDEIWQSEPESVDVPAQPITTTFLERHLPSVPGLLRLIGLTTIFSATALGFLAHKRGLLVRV
Sequence of rhMAO-A (P21397 whole entry): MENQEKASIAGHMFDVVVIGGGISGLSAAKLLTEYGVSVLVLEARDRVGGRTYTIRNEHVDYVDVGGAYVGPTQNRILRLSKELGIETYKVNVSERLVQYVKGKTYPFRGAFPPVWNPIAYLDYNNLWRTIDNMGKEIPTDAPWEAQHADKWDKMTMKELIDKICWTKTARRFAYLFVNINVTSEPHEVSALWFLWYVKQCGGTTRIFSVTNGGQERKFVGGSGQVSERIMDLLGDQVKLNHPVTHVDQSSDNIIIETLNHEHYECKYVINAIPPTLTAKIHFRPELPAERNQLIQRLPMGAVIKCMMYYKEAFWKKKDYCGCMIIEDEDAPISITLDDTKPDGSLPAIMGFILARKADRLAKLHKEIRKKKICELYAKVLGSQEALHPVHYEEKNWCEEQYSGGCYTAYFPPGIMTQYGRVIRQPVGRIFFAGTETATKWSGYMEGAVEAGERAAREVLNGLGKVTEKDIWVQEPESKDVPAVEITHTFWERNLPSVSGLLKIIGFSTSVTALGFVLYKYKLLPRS

| SMILES | IC50 (rhVAP-1) | IC50 (rhMAO-A; [1]) | IC50 (rhMAO-B; [1]) | IC50 (rhMAO-A; bound printed in cell) | IC50 (rhMAO-B; bound printed in cell) |
| --- | --- | --- | --- | --- | --- |
| CCCCc1nc2ccc(C(=O)NC/C(=C/F)CN)cc2o1 [Example 40, (E)-N-(2-(aminomethyl)-3-fluoroallyl)-2-butylbenzo[d]oxazole-6-carboxamide 4-methylbenzenesulfonate] | 0.1 to 1 µM | 10 to 30 µM | 10 to 30 µM | – | – |
| NC/C(=C\F)COc1ccc2nc(C3CCC(c4ccccc4)CC3)oc2c1 (stereo not drawn) [Example 41, (E)-3-fluoro-2-(((2-(4-phenylcyclohexyl)benzo[d]oxazol-6-yl)oxy)methyl)prop-2-en-1-amine 4-methylbenzenesulfonate] | < 0.1 µM | 10 to 30 µM | 0.1 to 1 µM | – | – |
| CCCC(C)c1nc2ccc(OC/C(=C/F)CN)cc2o1 (stereo not drawn) [Example 43, (E)-3-fluoro-2-(((2-(pentan-2-yl)benzo[d]oxazol-6-yl)oxy)methyl)prop-2-en-1-amine 4-methylbenzenesulfonate] | < 0.1 µM | 10 to 30 µM | 0.1 to 1 µM | – | – |
| CCCCc1nc2ccc(NC/C(=C\F)CN)cc2o1 [Example 44, (Z)—N1-(2-butylbenzo[d]oxazol-6-yl)-2-(fluoromethylene)propane-1,3-diamine 4-methylbenzenesulfonate] | < 0.1 µM | 10 to 30 µM | 0.1 to 1 µM | – | – |
| NC/C(=C\F)COc1ccc2nc(NCCc3ccccc3)oc2c1 [Example 45, (E)-6-((2-(aminomethyl)-3-fluoroallyl)oxy)-N-phenethylbenzo[d]oxazol-2-amine 4-methylbenzenesulfonate] | < 0.1 µM | 10 to 30 µM | 0.1 to 1 µM | – | – |
| CCCN(C)c1nc2ccc(OC/C(=C/F)CN)cc2o1 [Example 46, (E)-6-((2-(aminomethyl)-3-fluoroallyl)oxy)-N-methyl-N-propylbenzo[d]oxazol-2-amine 4-methylbenzenesulfonate] | < 0.1 µM | 1 to 10 µM | 1 to 10 µM | – | – |
| NC/C(=C\F)COc1ccc2nc(NCCO)oc2c1 [Example 47, (E)-2-((6-((2-(aminomethyl)-3-fluoroallyl)oxy)benzo[d]oxazol-2-yl)amino)ethan-1-ol 4-methylbenzenesulfonate] | < 0.1 µM | 10 to 30 µM | 10 to 30 µM | – | – |
| CC(C)(Nc1nc2ccc(OC/C(=C/F)CN)cc2o1)c1ccccc1 [Example 48, (E)-6-((2-(aminomethyl)-3-fluoroallyl)oxy)-N-(2-phenylpropan-2-yl)benzo[d]oxazol-2-amine 4-methylbenzenesulfonate] | < 0.1 µM | 10 to 30 µM | 10 to 30 µM | – | – |
| CN(Cc1ccccc1)c1nc2ccc(OC/C(=C/F)CN)cc2o1 [Example 49, (E)-6-((2-(aminomethyl)-3-fluoroallyl)oxy)-N-benzyl-N-methylbenzo[d]oxazol-2-amine 4-methylbenzenesulfonate] | < 0.1 µM | 10 to 30 µM | 0.1 to 1 µM | – | – |
| CC(C)(C)c1nc2ccc(OC/C(=C/F)CN)cc2o1 [Example 50, (E)-2-(((2-(tert-butyl)benzo[d]oxazol-6-yl)oxy)methyl)-3-fluoroprop-2-en-1-amine 4-methylbenzenesulfonate] | < 0.1 µM | 10 to 30 µM | 1 to 10 µM | – | – |
| CC(C)(C)CCCc1nc2ccc(OC/C(=C/F)CN)cc2o1 [Example 51, (E)-2-(((2-(4,4-dimethylpentyl)benzo[d]oxazol-6-yl)oxy)methyl)-3-fluoroprop-2-en-1-amine 4-methylbenzenesulfonate] | < 0.1 µM | 1 to 10 µM | 0.1 to 1 µM | – | – |
| CNC(=O)CN(Cc1ccccc1)c1nc2ccc(OC/C(=C/F)CN)cc2o1 [Example 53, (E)-2-((6-((2-(aminomethyl)-3-fluoroallyl)oxy)benzo[d]oxazol-2-yl)(benzyl)amino)-N-methylacetamide 4-methylbenzenesulfonate] | < 0.1 µM | – | – | > 50 µM | > 50 µM |
| NC/C(=C\F)COc1ccc2nc(C34CC5CC(CC(C5)C3)C4)oc2c1 [Example 54, (E)-2-(((2-((3r,5r,7r)-adamantan-1-yl)benzo[d]oxazol-6-yl)oxy)methyl)-3-fluoroprop-2-en-1-amine 4-methylbenzenesulfonate] | < 0.1 µM | 1 to 10 µM | 1 to 10 µM | – | – |
| Cc1ccc(CNc2nc3ccc(OC/C(=C/F)CN)cc3o2)cn1 [Example 55, (E)-6-((2-(aminomethyl)-3-fluoroallyl)oxy)-N-((6-methylpyridin-3-yl)methyl)benzo[d]oxazol-2-amine 4-methylbenzenesulfonate] | < 0.1 µM | – | 1 to 10 µM | > 35 µM | – |
| CNC(=O)C(Cc1ccccc1)Nc1nc2ccc(OC/C(=C\F)CN)cc2o1 (stereo not drawn) [Example 56, (Z)-2-((6-((2-(aminomethyl)-3-fluoroallyl)oxy)benzo[d]oxazol-2-yl)amino)-N-methyl-3-phenylpropanamide 4-methylbenzenesulfonate] | < 0.1 µM | – | 10 to 30 µM | > 50 µM | – |
| NC/C(=C/F)COc1ccc2nc(NCc3ccc(N4CCCC4=O)cc3)oc2c1 [Example 57, (Z)-1-(4-(((6-((2-(aminomethyl)-3-fluoroallyl)oxy)benzo[d]oxazol-2-yl)amino)methyl)phenyl)pyrrolidin-2-one 4-methylbenzenesulfonate] | 1 to 10 µM | 1 to 10 µM | – | – | > 40 µM |
| NC/C(=C/F)COc1ccc2nc(NCc3cccnc3)oc2c1 [Example 58, (Z)-6-((2-(aminomethyl)-3-fluoroallyl)oxy)-N-(pyridin-3-ylmethyl)benzo[d]oxazol-2-amine bis(4-methylbenzenesulfonate)] | 1 to 10 µM | – | 1 to 10 µM | > 50 µM | – |
| CC(C)(C)CNc1nc2ccc(OC/C(=C/F)CN)cc2o1 [Example 59, (E)-6-((2-(aminomethyl)-3-fluoroallyl)oxy)-N-neopentylbenzo[d]oxazol-2-amine (4-methylbenzenesulfonate)] | 1 to 10 µM | 1 to 10 µM | 1 to 10 µM | – | – |
| Cc1cc(CNc2nc3ccc(OC/C(=C\F)CN)cc3o2)cc(C)n1 [Example 60, (Z)-6-((2-(aminomethyl)-3-fluoroallyl)oxy)-N-((2,6-dimethylpyridin-4-yl)methyl)benzo[d]oxazol-2-amine bis(4-methylbenzenesulfonate)] | < 0.1 µM | – | 1 to 10 µM | > 50 µM | – |
| COCCNc1nc2ccc(OC/C(=C\F)CN)cc2o1 [Example 61, (Z)-6-((2-(aminomethyl)-3-fluoroallyl)oxy)-N-(2-methoxyethyl)benzo[d]oxazol-2-amine 4-methylbenzenesulfonate] | < 0.1 µM | – | 1 to 10 µM | > 50 µM | – |
| NC/C(=C/F)COc1ccc2nc(NCc3ccnc(C(F)(F)F)c3)oc2c1 [Example 62, (Z)-6-((2-(aminomethyl)-3-fluoroallyl)oxy)-N-((2-(trifluoromethyl)pyridin-4-yl)methyl)benzo[d]oxazol-2-amine 4-methylbenzenesulfonate] | < 0.1 µM | 10 to 30 µM | 1 to 10 µM | – | – |
| NC/C(=C/F)COc1ccc2nc(N3CCOCC3)oc2c1 [Example 64, (Z)-3-fluoro-2-(((2-morpholinobenzo[d]oxazol-6-yl)oxy)methyl)prop-2-en-1-amine 4-methylbenzenesulfonate] | < 0.1 µM | 1 to 10 µM | 1 to 10 µM | – | – |
